Assay results taken from ChEMBL document CHEMBL4819128, “Discovery of indoline derivatives as anticancer agents via inhibition of tubulin polymerization” (Bioorg Med Chem Lett, 2021).
The source made the active and inactive calls. No cut-off for these calls is given here.

Tests used:
MGC-803 = assay: Antiproliferative activity against human MGC-803 cells incubated for 48 hrs by CCK8 assay; format: functional, cell-based; details: MGC-803, 48 h
Tubulin (Homo sapiens) [1] = target: T1, Tubulin (Homo sapiens) (UniProt P68371+Q9H4B7+P0DPH7+P68366+Q13509+Q71U36+P04350+Q3ZCM7+P07437+P68363+Q9BQE3+Q6PEY2+Q13885+Q9BVA1+Q9BUF5); assay: Inhibition of tubulin polymerization in human KYSE-450 cells assessed as reduction in cell viability upto 48 hrs; format: cell-based; details: time hrs <=48, TDE = time-dependent effect
[2] = target: Tubulin beta (Homo sapiens) (UniProt P68371+Q9H4B7+Q13509+P04350+Q3ZCM7+P07437+Q13885+Q9BVA1+Q9BUF5+A6NNZ2); assay: Binding affinity to beta-tubulin colchicine binding site in human KYSE-30 cells assessed as inhibition of tubulin-EBI adduct formation by EBI addition by Western blotting analysis; format: cell-based
Tubulin (Homo sapiens) [3] = target: T1, Tubulin (Homo sapiens); assay: Inhibition of tubulin polymerization in human KYSE-30 cells at 1.25 uM by immunofluorescence assay; format: cell-based
Tubulin (Homo sapiens) [4] = target: T1, Tubulin (Homo sapiens); assay: […] of tubulin polymerization in human KYSE-450 cells assessed as inhibition of cell growth after 48 hrs relative to control; format: cell-based
Tubulin (Homo sapiens) [5] = target: T1, Tubulin (Homo sapiens); assay: Inhibition of tubulin polymerization in human KYSE-30 cells assessed as reduction in cell viability; format: cell-based
KYSE-450 [6] = assay: Induction of cell morphological changes in human KYSE-450 cells measured after 48 hrs; format: functional, cell-based
Tubulin (Homo sapiens) [7] = target: T1, Tubulin (Homo sapiens); assay: Inhibition of tubulin polymerization in human KYSE-30 cells by immunofluorescence assay; format: cell-based
KYSE-450 [8] = assay: Inhibition of colony formation in human KYSE-450 cells at 0.188 to 0.313 uM after 7 days by crystal violet staining based assay; format: functional, cell-based; details: dose 0.188-0.313 µM, time 7.0 day

IC50 (MGC-803) [µM]	Activity [2]	inhibition (Tubulin (Homo sapiens) [3])	Activity (Tubulin (Homo sapiens) [4])	inhibition (Tubulin (Homo sapiens) [7])	Structure (SMILES)	inhibition (Tubulin (Homo sapiens) [1])	inhibition (Tubulin (Homo sapiens) [5])	Activity (KYSE-450 [6])	inhibition (KYSE-450 [8])
32.8					O=C(Cc1ccccc1)N1CCc2cc(Br)ccc21				
	Active	Active	Dose-Dependent Effect	Dose-Dependent Effect	COc1cc(C(=O)N2CCc3cc(Br)ccc32)cc(OC)c1OC	Tde	Dose-Dependent Effect	Active	Active
